In patent US10604487B2, “Pyridinol derivative or pharmaceutically acceptable salt thereof, and pharmaceutical composition containing same as active ingredient” (Research Cooperation Foundation of Yeungnam University, priority 2016, dated 2020):
Like-named read-outs stand apart in the source and are kept apart here.

Legend:
[1] = system: TNF-α-induced adhesion of monocytes to intestinal epithelial cells; test: Inhibitory activity against TNF-α-induced adhesion of monocytes (U937) to intestinal epithelial cells (HT-29); format: cell-based, human; conditions: for inhibition at 1 µM / IC50: Homo sapiens; for IC50: TNF-α-induced, read-out: IC50 (adhesion inhibition)
Experimental: HT-29 human colorectal cancer-derived epithelial cells and U937 human-derived monocytic cells were cultured in an RPMI 1640 medium containing 10% FBS and 1% penicillin/streptomycin (PS) at 37° C. under a condition of 5% CO2, and when the cells were grown to 80% or more in a culture flask, they were subcultured in a ratio of 1:3 to be used in this test. The HT-29 cells were cultured in a 24-well plate at a concentration of 2×10^5 cells/cm2, and then the medium only containing 1% FBS and 1% PS was pretreated with a test drug for 1 hour. Afterward, BCECF-loaded U937 cells by being treated with 10 μg/mL of BCECF-AM at 37° C. for 30 minutes and 10 ng/mL of TNF-α reacted with the HT-29 cells previously treated with the test drug at 37° C. for 3 hours. After the reaction, the medium was removed, and then the cells were washed with PBS twice to remove U937 cells that were not adhered. In a subsequent step, for cell lysis, 0.1% Triton X-100 (0.1 M Tris) was treated to allow a reaction at room temperature for 30 minutes, and then fluorescence was measured using a Fluostar optima microplate reader (BMG LABTECH, Germany) to quantify the cells (Carvalho et al., 1996; Thapa et al., 2008).

[2] = system: TNBS-induced colitis; test: In vivo efficacy of oral administration in TNBS-induced inflammatory bowel disease model; parameters: species or system Sprague Dawley rats; conditions: rat; for Body weight recovery rate (%) / Bowel weight recovery rate (%): oral, 5 days
Experimental: 7 to 8-week-old Sprague Dawley rats were purchased from Orient Bio Korea, and after stabilization with typical solid feed for 3 days, were used as animals for the experiment. The animals were freely supplied with feed and water during the experiment, and a cage was maintained at a temperature of 25±1° C. and a relative humidity of 50±10%. Lighting was adjusted to a 12-hour light-dark cycle using an automatic lightening system. In regard to experimental groups, there were 5 groups each consisting of 6 rats having an average weight of 180±10 g (a control group, a group administered TNBS only, a group administered TNBS+300 mg/kg of sulfasalazine, a group administered TNBS+10 mg/kg of GLPG, and a group administered TNBS+1 mg/kg of test drug), which were divided according to a randomized block design.
After rats that had been fasting for 24 hours were anesthetized with diethyl ether, a 1 mL syringe connected with a polyethylene catheter was used to slowly inject 0.8 mL of 5% TNBS diluted with 50v/v % ethanol into the lumen of a colon, and then the rats turned upside down and kept upright for 60 seconds to prevent the leakage of 5% TNBS from the anus. In the control group, only a vehicle [50 v/v % ethanol] was injected in the same manner as in the other groups (Thapa et al., 2008).
To examine a drug effect, for 5 days from the day following the TNBS treatment, a drug was administered at a predetermined time every day.
A change in the body weights of the rats was observed using a digital mass meter from the fasting stage to the end of the TNBS administration and drug administration processes.
The colon of each rat was extracted and tissue 5 to 6 cm from the anus was cut into 1-cm pieces, and then the weight of the tissue was measured.

[3] = Cytotoxicity test (MTT), HT-29; format: cell-based; conditions: human, HT-29, 48 h; for viability at 48 h, 0.01 µM / viability at 48 h, 0.1 µM / viability at 48 h, 1 µM / viability at 48 h, 10 µM / viability at 48 h, 100 µM: HT-29 cells (colorectal cancer cell line), read-out: Cell viability (% of control); for IC50 at 48 h: HT-29 cells, read-out: IC50 (μM), cytotoxicity
Experimental: (§1) The human colorectal cancer cell line HT-29 and the monocytic blood cancer-derived cell line U937 were cultured in a RPMI 1640 medium containing 10% FBS and 1% penicillin/streptomycin (PS) at 37° C. under a condition of 5% CO2, and when the cells used herein were grown to 80% or more, they were subcultured at a ratio of 1:3.
(§2) Each type of cells were cultured in a 96 well plate at a concentration of 1×10^5 cells/cm2, treated with a test compound by concentration in a medium only containing 1% FBS and 1% PS at 37° C. under a condition of 5% CO2 for 48 hours and reacted with 5 mg/mL of a 3-[4,5-dimethylthiazol-2-yl]-2,5-diphenyltetrazolium bromide (MTT) reagent for 4 hours, and then the medium was completely removed, the cells were treated with DMSO, formazan crystals were dissolved for 30 minutes, and then absorbance was measured at 540 nm.

[4] = Cytotoxicity test (MTT), U937; format: cell-based; conditions: human, U937, 48 h; for viability at 48 h, 0.01 µM / viability at 48 h, 0.1 µM / viability at 48 h, 1 µM / viability at 48 h, 10 µM / viability at 48 h, 100 µM: U937 cells (monocytic blood cancer-derived cell line), read-out: Cell viability (% of control); for IC50 at 48 h: U937 cells
Experimental: as §1, §2

[5] = 1 μM, Table 8, read-out: 1 μM concentration inhibitory activity
[6] = 1 μM test drug, HT-29/U937 adhesion, 10 ng/mL TNF-α, read-out: Inhibitory activity (%)
[7] = 1 μM test drug, HT-29/U937 adhesion, 10 ng/mL TNF-α

Structure (SMILES) | Body weight recovery rate (%) ([2]; 1 mg/kg) | Bowel weight recovery rate (%) ([2]; 1 mg/kg) | viability at 48 h, 0.01 µM [3] | viability at 48 h, 0.1 µM [3] | viability at 48 h, 1 µM [3] | viability at 48 h, 10 µM [3] | viability at 48 h, 100 µM [3] | IC50 at 48 h [3] | viability at 48 h, 0.01 µM [4] | viability at 48 h, 0.1 µM [4] | viability at 48 h, 1 µM [4] | viability at 48 h, 10 µM [4] | viability at 48 h, 100 µM [4] | IC50 at 48 h [4] | inhibition at 1 µM [1, 6] | also measured
Cc1nc(NS(=O)(=O)c2ccc(C(F)(F)F)cc2)c(C)c(C)c1O [Compound 22-3, N-(5-hydroxy-3,4,6-trimethylpyridin-2-yl)-4-(trifluoromethyl)benzenesulfonamide] | 25.0% | 50.3% | 92.5 ± 1.5% | 95 ± 0.9% | 89.3 ± 4.7% | 91.8 ± 1.8% | 72.6 ± 3.2% | > 100 µM | 96.9 ± 1.5% | 93 ± 1.5% | 87.5 ± 2.2% | 75.5 ± 1.9% | 53.3 ± 1.5% | > 100 µM | – | inhibition at 1 µM [1, 5]: 87.3%; IC50 ([1]; HT-29/U937 adhesion): 0.32 µM
Cc1nc(NC(=S)NC(=O)c2ccccc2)c(C)c(C)c1O [Compound 18-13, N-((5-Hydroxy-3,4,6-trimethylpyridin-2-yl)carbamothioyl)benzamide] | 93.8% | 94.9% | 78.8 ± 3.3% | 75.4 ± 1.3% | 75.4 ± 4.1% | 57.9 ± 5.8% | 36.4 ± 6.1% | 19.1 µM | 99.9 ± 1.3% | 96.8 ± 1.8% | 91.7 ± 3.6% | 79 ± 0.8% | 60.6 ± 0.5% | > 100 µM | ≥ 50% | –
Cc1nc(NC(=O)Nc2ccccc2)c(C)c(C)c1O [Compound 16-2, 1-(5-hydroxy-3,4,6-trimethylpyridin-2-yl)-3-phenylurea] | 69.0% | 81.6% | 103 ± 1.9% | 103 ± 1.6% | 103 ± 3.5% | 93.4 ± 7.2% | 65.2 ± 6.6% | > 100 µM | 89.9 ± 2.6% | 88.9 ± 1.9% | 87.1 ± 2% | 81.7 ± 2% | 78 ± 0.6% | > 100 µM | – | inhibition at 1 µM [1, 5]: 76.3%; IC50 ([1]; HT-29/U937 adhesion): 0.41 µM
O=C(O)c1cc(/N=N/c2ccc(S(=O)(=O)Nc3ccccn3)cc2)ccc1O [Sulfasalazine, reference compound] | – | – | – | – | – | – | – | – | – | – | – | – | – | – | – | Morphology observation of colon (visual symptoms, adhesion between organs, intestinal hyperemia) ([2]; 300 mg/kg, after 5-day administration): considerably inhibited; Body weight recovery rate (%) ([2]; 300 mg/kg): 50.5%; Bowel weight recovery rate (%) ([2]; 300 mg/kg): 69.6%
Cc1nc(NC(=S)Nc2ccc(Cl)c(Cl)c2)c(C)c(C)c1O [Compound 18-8, 1-(3,4-dichlorophenyl)-3-(5-hydroxy-3,4,6-trimethylpyridin-2-yl)thiourea] | 72.4% | 84.6% | – | – | – | – | – | – | – | – | – | – | – | – | – | Inhibitory activity (%) [1, 7]: 87.2%
Cc1ccc(S(=O)(=O)Nc2nc(C)c(O)c(C)c2C)cc1 [Compound 22-2, N-(5-hydroxy-3,4,6-trimethylpyridin-2-yl)-4-methylbenzenesulfonamide] | – | – | 77.1 ± 3% | 76.9 ± 4% | 73.8 ± 5.8% | 71.5 ± 4.6% | 62.8 ± 0.5% | > 100 µM | 96.6 ± 1.6% | 94.5 ± 6.3% | 96.1 ± 3.8% | 90.5 ± 1.7% | 60.9 ± 1.7% | > 100 µM | 42.1% | –
Cc1nc(NS(=O)(=O)c2ccc([N+](=O)[O-])cc2)c(C)c(C)c1O [Compound 22-4, N-(5-hydroxy-3,4,6-trimethylpyridin-2-yl)-4-nitrobenzenesulfonamide] | – | – | 96.6 ± 1.3% | 97.8 ± 2.4% | 96.3 ± 1.7% | 85.4 ± 6.7% | 64.8 ± 7.1% | > 100 µM | 95.2 ± 4.6% | 93.3 ± 0.8% | 80.2 ± 11.7% | 84.7 ± 1.7% | 70.6 ± 0.4% | > 100 µM | -2.3% | –
Cc1nc(NC(=S)NC2CCCCC2)c(C)c(C)c1O [Compound 18-3, 1-cyclohexyl-3-(5-hydroxy-3,4,6-trimethylpyridin-2-yl)thiourea] | – | – | 90.9 ± 5.1% | 80.5 ± 10.4% | 66.8 ± 6.2% | 67 ± 5% | 51.3 ± 6.7% | > 100 µM | 88.8 ± 7% | 93.1 ± 1% | 97.6 ± 1.3% | 87.7 ± 2% | 84.3 ± 1.5% | > 100 µM | ≥ 50% | –
CCCCOC(=O)Nc1nc(C)c(O)c(C)c1C [Compound 20-2, butyl (5-hydroxy-3,4,6-trimethylpyridin-2-yl)carbamate] | – | – | 102 ± 1.4% | 102 ± 3.2% | 98.1 ± 3.4% | 98.3 ± 3.8% | 67.6 ± 1.9% | > 100 µM | 87.4 ± 1.3% | 84.4 ± 2.3% | 84.6 ± 2% | 80.7 ± 0.8% | 74.4 ± 3.8% | > 100 µM | 26.9% | –
COC(=O)Nc1nc(C)c(O)c(C)c1C [Compound 20-1, methyl (5-hydroxy-3,4,6-trimethylpyridin-2-yl)carbamate] | – | – | 89.7 ± 6.3% | 84.9 ± 1.9% | 85 ± 3.4% | 82.6 ± 1.3% | 73.7 ± 4.5% | > 100 µM | 97.5 ± 1.6% | 95.1 ± 5.3% | 93.7 ± 1.2% | 80.9 ± 12.8% | 89.6 ± 1% | > 100 µM | 9.8% | –
Cc1nc(NC(=S)Nc2cccc(C(F)(F)F)c2)c(C)c(C)c1O [Compound 18-9, 1-(5-Hydroxy-3,4,6-trimethylpyridin-2-yl)-3-(3-(trifluoromethyl)phenyl)thiourea] | 74.9% | 87.2% | – | – | – | – | – | – | – | – | – | – | – | – | – | Inhibitory activity (%) [1, 7]: 93.0%
